The results in this text go back to PubChem BioAssay (NCI).

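Tested at 5 concentrations; 48 h exposure; 96-well plates; endpoints linearly interpolated, else capped at highest concentration. TGI: concentration producing complete growth inhibition.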

Test systems include UACC-257 melanoma; NCI-H226 lung; SK-MEL-28 melanoma; BT-549 breast; DU-145 prostate; KM12 colon; UO-31 renal; IGROV1 ovarian; MDA-N; CCRF-CEM leukemia; COLO 205 colon; RXF 393 renal; PC-3 prostate; TK-10 renal; CAKI-1 renal; 786-0 renal; SF-268 CNS; U251 CNS; MALME-3M melanoma; MOLT-4 leukemia.
What all share (experiment): growth of human tumour cells (NCI), 48 h

Regarding `CN1CCN(C(=O)CCNC(=O)Cc2ccc(C(=O)c3ccccc3)cc2)CC1`, the TGI in the assay on UACC-257 melanoma, in the assay on NCI-H226 lung, in the assay with SK-MEL-28 melanoma, with BT-549 breast, with DU-145 prostate and with KM12 colon was over 100 µM each time. Further, the TGI in the assay on UO-31 renal is over 100 µM; with IGROV1 ovarian it was over 100 µM; with MDA-N it was 71.5 µM; with CCRF-CEM leukemia it was over 100 µM; in the assay on COLO 205 colon, over 100 µM; with RXF 393 renal it was over 100 µM. Further, the TGI with PC-3 prostate, in the assay with TK-10 renal, in the assay with CAKI-1 renal, in the assay on 786-0 renal, in the assay on SF-268 CNS and in the assay with U251 CNS was over 100 µM each time. Further, the TGI in the assay with MALME-3M melanoma and in the assay with MOLT-4 leukemia was over 100 µM throughout.

Turning to `CC(C)(C)OC(=O)N1CCc2[nH][nH]c(=O)c2C1`, the TGI in the assay with UACC-257 melanoma, with NCI-H226 lung, in the assay on SK-MEL-28 melanoma, in the assay on BT-549 breast, in the assay on DU-145 prostate and in the assay with KM12 colon was over 100 µM throughout. Besides, the TGI in the assay on UO-31 renal, in the assay with IGROV1 ovarian, in the assay with MDA-N, with CCRF-CEM leukemia, in the assay on COLO 205 colon and in the assay on RXF 393 renal was over 100 µM each time. Besides, the TGI with PC-3 prostate, in the assay on TK-10 renal, with CAKI-1 renal, in the assay with 786-0 renal, with SF-268 CNS and with U251 CNS was over 100 µM throughout. For the same compound, the TGI with MALME-3M melanoma and in the assay on MOLT-4 leukemia was over 100 µM throughout.

Turning to `OC1[C@@H]2[C@@H](O)[C@H](O)[C@@H](O)N2C[C@@H]1O` (stereo not given in full), the TGI in the assay on UACC-257 melanoma, with NCI-H226 lung, in the assay on SK-MEL-28 melanoma, in the assay on BT-549 breast, in the assay with DU-145 prostate and in the assay with KM12 colon was over 100 µM each time. Moreover, the TGI in the assay with UO-31 renal, in the assay with IGROV1 ovarian, in the assay with MDA-N, in the assay with CCRF-CEM leukemia, in the assay on COLO 205 colon and in the assay on RXF 393 renal was over 100 µM throughout. Also, the TGI in the assay with PC-3 prostate, in the assay on TK-10 renal, in the assay on CAKI-1 renal, in the assay on 786-0 renal, with SF-268 CNS and with U251 CNS was over 100 µM throughout. In addition, the TGI in the assay with MALME-3M melanoma and in the assay on MOLT-4 leukemia was over 100 µM throughout.

With `CCCC(=O)n1[nH]c(=O)n(-c2ccc(Cl)cc2)c1=O`, the TGI with UACC-257 melanoma, in the assay with NCI-H226 lung, in the assay with SK-MEL-28 melanoma, in the assay on BT-549 breast, in the assay with DU-145 prostate and in the assay with KM12 colon was over 100 µM in each case. In addition, the TGI with UO-31 renal, in the assay with IGROV1 ovarian, in the assay with MDA-N, in the assay with CCRF-CEM leukemia, in the assay on COLO 205 colon and in the assay on RXF 393 renal was over 100 µM in each case. The TGI in the assay on PC-3 prostate, in the assay with TK-10 renal, in the assay with CAKI-1 renal, in the assay on 786-0 renal, with SF-268 CNS and with U251 CNS was over 100 µM in each case. Moreover, the TGI with MALME-3M melanoma and in the assay with MOLT-4 leukemia was over 100 µM in each case.

Regarding `CC(=O)N(C)c1ccc(Nc2cc(C)[nH]c3ccc4ncnc4c23)cc1`, the TGI was 26.7 µM in the assay on UACC-257 melanoma; 19.5 µM in the assay on NCI-H226 lung; 36.5 µM with SK-MEL-28 melanoma; 24.5 µM in the assay on BT-549 breast; 22.4 µM in the assay on DU-145 prostate; 27.6 µM in the assay on KM12 colon. The TGI was determined as 56.3 µM in the assay with UO-31 renal; 64.4 µM in the assay on IGROV1 ovarian; 23.9 µM in the assay on MDA-N; 34.9 µM with CCRF-CEM leukemia; 16 µM with COLO 205 colon; 22.9 µM in the assay with RXF 393 renal. For the same compound, the TGI in the assay on PC-3 prostate was determined as 18 µM; with TK-10 renal, 48.3 µM; in the assay on CAKI-1 renal, 23.8 µM; in the assay on 786-0 renal it was 18.8 µM; in the assay on SF-268 CNS, 38.7 µM; in the assay on U251 CNS, 30.6 µM. The TGI was 17.5 µM with MALME-3M melanoma and 13.7 µM with MOLT-4 leukemia.

As to `O=C1C2CC=CCC2C(=O)N1n1c(Cc2ccc(Cl)cc2)n[nH]c1=O` (stereo not given), the TGI in the assay with UACC-257 melanoma, in the assay with NCI-H226 lung, in the assay with SK-MEL-28 melanoma, with BT-549 breast, in the assay with DU-145 prostate and with KM12 colon was over 100 µM throughout. The TGI in the assay on UO-31 renal, in the assay on IGROV1 ovarian, in the assay with MDA-N, in the assay with CCRF-CEM leukemia, in the assay with COLO 205 colon and in the assay on RXF 393 renal was over 100 µM in each case. The TGI in the assay on PC-3 prostate, in the assay with TK-10 renal, with CAKI-1 renal, in the assay with 786-0 renal, in the assay on SF-268 CNS and in the assay with U251 CNS was over 100 µM throughout. Also, the TGI with MALME-3M melanoma and in the assay on MOLT-4 leukemia was over 100 µM throughout.
